The results in this text go back to patent US20010034352A1, “Piperidine-4 sulphonamide compounds” (priority 2000, published 2001).

Molecules are shown by their SMILES.

What all share (type): cell-based
For one experiment, the system named is cGMP in rat aortic rings. Nature of the experiment: Assessment of aortic production of cGMP stimulated by ACh in the presence of LNA (radioimmunoassay). Particulars: compound at 3×10^−9 M, 30-minute incubation, ACh 10^−5 M 1 minute, LNA 3×10^−6 M, isobutylmethylxanthine 10^−5 M. As to the method: Involvement of the NO Route in the Vascular Protective Effects Detected: Assessment of Aortic Production of cGMP
By diffusing to the smooth muscle cells, the NO produced by the endothelial cells activates soluble guanylate cyclase, which brings about an increase in cyclic GMP which is responsible for relaxation.
The rat aortic rings are prepared as previously. Assessment is made of the effects of a 30-minute incubation of the compounds of the invention at different concentrations on the production of cGMP stimulated by ACh (10^−5 M—1 minute) in the presence of LNA (3×10^−6 M). The experiments are carried out in the presence of isobutylmethylxanthine (10^−5 M) in order to avoid degradation of the cGMP by phosphodiesterases. The rings are frozen in liquid nitrogen and maintained at −80° C. until the assay is carried out. The cGMP content is assessed by radioimmunoassay and expressed in relation to the amount of protein contained in the tissue (assay by the Bradford method).

Experiment [1] relates to thoracic aorta rings of a Wistar rat. Nature of the experiment: Vascular protective effects with respect to endothelial dysfunction induced by an inhibitor of NOS (LNA), ACh relaxation of aortic rings. To be noted: compound at 3×10^−9 M, LNA 3.10^−7 M, difference between percentages of maximum ACh relaxation in presence or absence of product. From the text:
Under standard in vitro conditions, relaxation of aortic rings caused by acetylcholine (ACh), which relaxation is totally dependent upon the presence of endothelium, reflects the production of NO (stimulated by ACh), which by diffusing to smooth muscle cells brings about arterial relaxation (Nature, 1980, 288, 373).
the first model consists of inducing inhibition of the relaxation due to ACh by blocking the enzymatic activity (endothelial NOS) responsible for the production of NO.
Vascular Protective Effects with Respect to Endothelial Dysfunction Induced by an Inhibitor of NOS
The thoracic aorta of a Wistar rat (325-375 g), anaesthetised by the intraperitoneal route using sodium pentobarbital (30 mg/kg), is removed and dissected into rings of 3 mm in length. […]
After a 90-minute stabilisation period, the preparations are contracted using phenylephrine (PHE 10^−6 M) and relaxed by adding 10^−5 M of acetylcholine in order to verify the 10 integrity of the endothelial layer. […] The preparations are again contracted using phenylephrine and, after 30 minutes, the relaxations due to acetylcholine (ACh—10^−8M to 10^−5 M) are assessed in the presence of indomethacin (10^−5M).
(§1) The relaxation values are expressed as a percentage relative to the maximum contraction caused by PHE. […]

The subject of experiment [2] is aortic rings of New Zealand rabbits. Nature of the experiment: Vascular protective effects with respect to endothelial dysfunction induced by a system generating O2^− (XO-Hypo), ACh relaxation of aortic rings. Particulars: compound at 3×10^−9 M; rabbit aortic rings; XO 3 mU/ml, Hypo 10^−4 M; difference between percentages of maximum ACh relaxation in presence or absence of product. The protocol: the second model consists of inducing oxidative stress in vitro using an enzymatic system that generates O2^− (xanthine oxidase —XO and hypoxanthine—Hypo).
The thoracic aorta of a Wistar rat (325-375 g), anaesthetised by the intraperitoneal route using sodium pentobarbital (30 mg/kg), is removed and dissected into rings of 3 mm in length. Each ring is suspended from an isometric tension sensor connected to a recording system and the initial tension applied is 2.5 g. The physiological solution used, which is thermostatically maintained at 37° C., and oxygenated (95% O2+5% CO2), comprises (in mM): NaCl 112.0, KCl 5.0, CaCl2 2.5, KH2PO4 1.0, MgSO4 1.2, NaHCO3 25.0, glucose 11.5, Ca-EDTA 0.016.
After a 90-minute stabilisation period, the preparations are contracted using phenylephrine (PHE 10^−6 M) and relaxed by adding 10^−5 M of acetylcholine in order to verify the 10 integrity of the endothelial layer. If that is confirmed, the preparations are rinsed and a concentration of the test product (or its solvent) is added to the medium, followed by 3.10^−7 M of N^G-nitro-L-arginine (LNA). The preparations are again contracted using phenylephrine and, after 30 minutes, the relaxations due to acetylcholine (ACh—10^−8M to 10^−5 M) are assessed in the presence of indomethacin (10^−5M).
as §1

Regarding `O=S(=O)(NC1CCN(CCc2coc3ccccc23)CC1)c1cccc2cnccc12` [Example 8, N-{1-[2-(Benzofuran-3-yl)ethyl]-4-piperidyl}-5-isoquinolinesulphonamide], the “increase of the production of cGMP stimulated by ACh in the presence of LNA” value in the experiment with cGMP in rat aortic rings was found to be 142.7%. The “inhibition of the endothelial dysfunction induced by LNA” value in experiment [1] was 23%. Also, in experiment [2], the “inhibition of the endothelial dysfunction induced by the XO-Hypo combination” value stood at 28.3%.
